According to patent US6642215B2 (Leo Pharma A/S, priority 2001, dated 2003):
Read-outs that look alike come from different tables or passages of the source.

Key:
IKK = target: T1, IKK (Homo sapiens, UniProt O14920); assay: In vitro kinase assay: IKK immunoprecipitated from LPS-stimulated THP-1 cells, GST-IκBα phosphorylation; type: biochemical; conditions: GST-IκB phosphorylated by activated IKK pretreated with the compound
T1 construct: IKK was immunoprecipitated with an IKKα/β antibody; endogenous in cells; host or cells: THP-1 cells stimulated with 1 μg/ml LPS; whole cell extract immunoprecipitated with an IKKα/β antibody (Santa Cruz)
T1 sequence (O14920 whole entry): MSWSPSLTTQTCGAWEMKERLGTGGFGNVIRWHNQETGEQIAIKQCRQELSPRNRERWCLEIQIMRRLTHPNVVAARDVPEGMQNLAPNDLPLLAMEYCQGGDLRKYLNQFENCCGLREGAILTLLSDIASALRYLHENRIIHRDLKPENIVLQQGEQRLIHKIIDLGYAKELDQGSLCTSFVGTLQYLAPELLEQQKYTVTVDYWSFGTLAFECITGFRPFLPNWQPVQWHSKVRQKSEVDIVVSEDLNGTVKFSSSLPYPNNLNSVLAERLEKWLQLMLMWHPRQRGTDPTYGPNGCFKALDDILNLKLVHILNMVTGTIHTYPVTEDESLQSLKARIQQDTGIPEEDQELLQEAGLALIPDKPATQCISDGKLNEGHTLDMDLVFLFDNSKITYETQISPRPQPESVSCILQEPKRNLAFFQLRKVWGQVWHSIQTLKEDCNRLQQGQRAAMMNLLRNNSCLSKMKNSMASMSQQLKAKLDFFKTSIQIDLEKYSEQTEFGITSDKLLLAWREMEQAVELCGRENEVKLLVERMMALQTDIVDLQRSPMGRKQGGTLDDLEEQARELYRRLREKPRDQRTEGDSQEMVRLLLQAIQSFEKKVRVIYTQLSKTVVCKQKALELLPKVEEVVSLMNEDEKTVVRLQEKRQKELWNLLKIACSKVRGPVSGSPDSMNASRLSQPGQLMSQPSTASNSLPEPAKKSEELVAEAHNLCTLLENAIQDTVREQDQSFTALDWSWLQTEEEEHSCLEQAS
T1 sequence (O15111 whole entry partner): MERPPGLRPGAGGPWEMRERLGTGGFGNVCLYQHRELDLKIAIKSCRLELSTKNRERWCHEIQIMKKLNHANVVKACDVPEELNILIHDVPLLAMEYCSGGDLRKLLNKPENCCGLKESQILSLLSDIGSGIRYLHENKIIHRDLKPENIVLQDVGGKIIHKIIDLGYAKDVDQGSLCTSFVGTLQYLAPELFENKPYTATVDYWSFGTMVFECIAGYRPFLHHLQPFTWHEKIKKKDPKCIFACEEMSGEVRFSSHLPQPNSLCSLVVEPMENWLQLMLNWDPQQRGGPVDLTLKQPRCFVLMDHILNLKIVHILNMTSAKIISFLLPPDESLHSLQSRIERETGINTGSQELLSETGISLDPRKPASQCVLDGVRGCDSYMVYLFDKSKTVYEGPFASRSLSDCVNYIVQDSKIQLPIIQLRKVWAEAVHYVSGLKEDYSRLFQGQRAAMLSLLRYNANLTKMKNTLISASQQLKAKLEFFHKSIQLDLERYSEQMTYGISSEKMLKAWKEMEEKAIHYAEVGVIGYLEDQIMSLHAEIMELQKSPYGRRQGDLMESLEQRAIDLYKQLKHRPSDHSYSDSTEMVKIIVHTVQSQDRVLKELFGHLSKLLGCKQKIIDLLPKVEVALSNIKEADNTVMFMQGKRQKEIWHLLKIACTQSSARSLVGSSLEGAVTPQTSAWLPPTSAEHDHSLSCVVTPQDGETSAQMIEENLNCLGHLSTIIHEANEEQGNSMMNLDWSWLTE
T1 sequence (Q9Y6K9 whole entry partner): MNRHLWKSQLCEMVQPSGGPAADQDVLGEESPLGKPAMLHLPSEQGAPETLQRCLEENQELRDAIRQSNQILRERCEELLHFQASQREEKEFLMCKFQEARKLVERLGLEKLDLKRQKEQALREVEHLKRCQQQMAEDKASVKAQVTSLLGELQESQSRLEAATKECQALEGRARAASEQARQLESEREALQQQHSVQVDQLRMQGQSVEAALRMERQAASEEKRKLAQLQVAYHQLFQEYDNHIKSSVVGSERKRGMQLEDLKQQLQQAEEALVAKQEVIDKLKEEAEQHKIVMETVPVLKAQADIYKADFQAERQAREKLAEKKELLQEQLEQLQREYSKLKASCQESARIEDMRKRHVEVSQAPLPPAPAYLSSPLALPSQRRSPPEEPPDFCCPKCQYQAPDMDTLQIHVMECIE
Experimental: In vitro kinase assay: THP-1 cells (1×10^7 cells) were stimulated with 1 μg/ml LPS for the indicated time periods and whole cell extracts were prepared as described above. IKK was immunoprecipitated with an IKKα/β antibody (raised against amino acid 470-755 of IKKβ of human origin but partially cross-reactive with IKKα as detected by Western Blotting (Santa Cruz Biotechnology Inc.). Compound A was diluted in kinase buffer (25 mM HEPES pH 7.5, 10 mM magnesium acetate, 50 μM ATP) at the appropriate concentrations. The compound was added to the beads for 30 min. at 30° C. The kinase reaction was started by adding 2.5 μg of the GST-IκBα substrate (Santa Cruz Biotechnology Inc.) together with 2 μCi γ-^32P-ATP (Amersham Pharmacia Biotech) per sample. The reaction was allowed to proceed for 30 min. at 30° C., and the IKK activity was measured by the amount of radioactive-labelled GST-IκBα bands, quantified by the STORM860 Phospho-Imager.
A general problem with the kinase assay is prestimulation of the kinase. To achieve a value for the zero-point, the LPS-activated IKK mixture was incubated with 20 μM myricetin (Sigma-Aldrich), which is a known IKKβ inhibitor (S. H. Tsal et al., J. Cell Biochem. 74, 1999, pp. 606-615). This value was subtracted from the all other values. All data are expressed as percentage of the activity of the LPS-activated IKKβ kinase treated with 0.1% DMSO.

NYH SCLC cells = assay: DNA synthesis (tritiated thymidine incorporation) in NYH SCLC cells; type: cell-based; conditions: incorporation of tritiated thymidine in NYH SCLC cells; read-out: NYH proliferation in vitro (IC50 nM)
Experimental: DNA synthesis: NYH SCLC, HT-1080, Colo-320, PC-3 and H460 cells (7.5×10^3 cells/ml) were seeded in tissue culture vessels and the test compound were added 2 h after plating. Following an incubation for 144 h tritiated thymidine (5 CI/mmol, Amersham Pharmacia Biotech) was added to the culture at the concentration of 1 μCi/ml, and the cells were incubated for additional 4 h. The incorporated thymidine was measured with a β-counter. Each compound concentration was tested in triplicate.

NF-κB [1] = assay: NF-κB-dependent luciferase assay in HT-1080 cells, TNF-α stimulation; type: cell-based, human; conditions: TNF-α 50 ng/ml, up to 24 h
Experimental: (§1) The NF-κB-luciferase reporter plasmid (pBIIX) and pRL-TK control vector described in Example 1 were used for the luciferase assay,
The HT-1080 cells were seeded at a density of 3×10^4 cells/cm^2 in 6 well-plates. The following day, the cells were co-transfected with construct DNA and pRL-TK vector using FuGene Transfection Reagent. A mixture of 10 μl Fugene and 90 μl serum free medium (per well) was prepared and Incubated for 5 min at room temperature. Then, this mixture was transferred to a mixture of construct DNA (1.25 μg per well) and pRL-TK vector (0.25 μg per well), gently mixed, incubated for 15 min at room temperature and added to the cells. The cells were treated at 37° C. with compound A (10^−12−10^−5 M) or DMSO for 24 h before stimulation with TNF-α (50 ng/ml) for 6 h.
(§2) The cell lysate was assayed for luciferase activity using the Dual luciferase kit as described by the manufacturer (Promega). All transfections were performed in triplicate. Firefly luciferase activity was corrected for differences in transfection efficiency by normalizing it to the measured Renilla luciferase activity.
(§3) NF-κB activity was measured by the luciferase assay described in Example 1.

NF-κB [2] = assay: NF-κB-dependent luciferase assay in Colo-320 cells, TNF-α stimulation; type: cell-based, human; conditions: TNF-α 50 ng/ml, up to 24 h
Experimental: as §1
The Colo-320 cells were seeded with a density of 5×10^4 cells/cm^2 in 6-well plates (NUNC). The following day, the cells were co-transfected with construct DNA and pRL-TK using FuGene Transfection Reagent (Boehringer Mannheim). A mixture of 5 μl Fugene and 95 μl serum free medium (per well) was prepared and incubated for 5 min at room temperature. Then, the mixture was transferred to a mixture of construct DNA (2.5 μg per well) and pRL-TK vector (0.25 μg per well), gently mixed, incubated for 15 min at room temperature and added to the cells. The cells were treated at 37° C. with compound A (10^−12−10^−5 M) or DMSO for 24 h before stimulation with TNF-α (50 ng/ml) for 6 h.
as §2, §3

NF-κB [3] = assay: NF-κB-dependent luciferase assay in PC-3 cells, TNF-α stimulation; type: cell-based, human; conditions: TNF-α 50 ng/ml, up to 24 h
Experimental: as §1
The PC-3 cells were seeded at a density of 3×10^4 cells/cm^2 in 6 well-plates. The following day, the cells were co-transfected with construct DNA and pRL-TK vector using DOTAP liposomal transfection reagent (Boehringer Mannheim). The construct DNA (4.0 μg per well), the pRL-TK vector (1.0 μg per well), DOTAP (16.7 μl per well) and dH2O (total volume 100 μl per well) were carefully mixed and incubated for 15 min at 37° C. A growth medium without serum (900 μl per well) was added and the transfection mixture (1 ml per well) was added to the cells. After 4 h at 37° C., a growth medium with 20% FBS (1 ml per well) was added. The cells were treated at 37° C. with compound A (10^−12−10^−5 M) or DMSO for 24 h before stimulation with TNF-α (50 ng/ml) for 6 h.
as §2, §3

NYH Xenografts = assay: NYH xenografts in nude mice, tumour growth; type: in vivo, NMRI nu/nu mice; conditions: nude mice with NYH SCLC tumours, 14 days of treatment with 20 mg/kg
Experimental: All of the animal experiments were conducted according to the guidelines and ethical standards of the Danish Committee for Animal Experiments. Female NMRI nu/nu mice 6 weeks of age were purchased from M&B (Ry, Denmark). The mice were allowed an acclimatisation period of 1-3 weeks before start of the experiments. The nude mice were housed in Scantainers under semi-sterile conditions and all handling of mice was performed in a laminar flow bench.
NYH Xenografts. NMRI nu/nu mice were injected with 1×10^7 cells in 0.2 ml media s.c. in both flanks and tumour growth was measured twice weekly. The tumour area was used as expression of the tumour size and was calculated from two perpendicular diameters measured with a digital caliper. Compound A was given for fourteen consecutive days by oral gavage from day 4-6 when the tumour size was 24-30 mm^2. Each treatment group consisted of 10 mice.
Statistical Methods In the animal models, tumour sizes were expressed by the mean of the trends in each treatment group. The trend is the linear increment or tumour size, where tumour size is the square root of the (mean) area of the tumour(s). Comparison with controls was expressed as T/C % and calculated as follows:
A=(overall mean tumour size at baseline+mean trend of treatment*intended days of treatment)
B=(overall mean tumour size at baseline+mean trend of control*intended days of treatment)
Overall mean tumour size at baseline=pooling all treatments this is the mean of all baseline values. For each mouse the baseline value is calculated as the square root of the (mean) area of the tumour(s).
Significance was tested with the Bonferroni correction. This correction is a method for adjusting (lowering) the significance level so the overall finding of one significant difference due to chance is around 5 percent.

Row | Compound | IC50 (IKK; read-out: IKK activity in vitro (IC50 nM)) [nM] | IC50 (NYH SCLC cells) [nM] | NF-κB activity increase compared to the control (NF-κB [1]) | NF-κB activity increase compared to the control (NF-κB [2]) [fold] | effect on the NF-κB activity (NF-κB [3]) | IC50 (IKK; cell prints (M), head nM, read-out: IKK activity in vitro (IC50)) [nM] | NYH tumor growth in vivo (T/C in %) (NYH Xenografts) [%]
1 | COc1ccc(NC(=NC#N)NCCCCCCOc2ccc(Cl)cc2)cn1 [compound C] | 22 ± 2.4 | 567 ± 127 |  |  |  |  | 
2 | TNF-α |  |  | approximately 12 fold | ~46 | only a small effect |  | 
3 | CCOC(=O)c1cccc(NC(=NC#N)NCCCCCCOc2ccc(Cl)cc2)c1 [compound E] |  | 597 ± 42 |  |  |  | > 10000 | −17.1
